Results: patent publication US7319153B2, “6,13-Bis(thienyl)pentacene compounds” (3M Innovative Properties Company, priority 2005, dated 2008)
Read-outs that look alike come from different tables or passages of the source.

Experiments:
[1] = isolation and purification; cited from earlier work
[2] = Solubility in tetrahydrofuran-d8 by proton NMR of saturated solutions; format: physicochemical
Experimental: The solubility of each compound prepared in Examples 1 to 4 was determined by the following method. The proton NMR spectra of saturated solutions of the compounds prepared in Examples 1 to 4 dissolved in tetrahydrofuran-d8 were compared with the proton NMR spectrum of a standard solution (i.e., known concentration) of the compound of Example 2, which was 2-hexyl-5-[ 13-(5-hexylthien-2-yl)pentacene-6-yl]thiophene, dissolved in tetrahydrofuran-d8. The same lot of tetrahydrofuran-d8 was used to make all of the solutions. The standard solution was prepared by dissolving 7.0 mg of the compound of Example 2 in 936 mg of tetrahydrofuran-d8 to give a 0.742 weight percent solution. Saturated solutions of the compounds of Examples 1 to 4 were prepared by placing an excess of the corresponding compound in approximately 1 mL of tetrahydrofuran-d8 and mixing for 30 minutes. The solutions were filtered and placed in an NMR tube and the corresponding proton NMR spectra were obtained.
For the standard (0.742 weight percent solution of the compound of Example 2), the NMR integration for the absorption at 8.59 ppm (the most down-field absorption corresponding to the four protons at positions 5, 7, 12 and 14) was compared to the absorption of the residual protio-tetrahydrofuran at 3.6 ppm to give a relative ratio of moles of the compound of Example 2 to moles of protio-tetrahydrofuran of 0.33. The molar ratio of the compound of Example 2 to tetrahydrofuran (protio- and deutero-) in the standard solution is 8.83×10^−4. This molar ratio (8.83×10^−4) divided by the relative ratio of moles of the compound of Example 2 to moles of protio-tetrahydrofuran (0.33) gave a factor of 2.68×10^−3. Multiplying this factor by the proton NMR integration for the saturated solutions of the corresponding compounds of Example 1 to 4 gave the ratio of moles of pentacene derivative to moles of tetrahydrofuran in the saturated solutions. This allowed the calculation of the concentrations for the various solutions of compounds of Examples 1 to 4 as shown in the table below.

[3] = Stability in tetrahydrofuran (endoperoxide formation by proton NMR); format: physicochemical; details: for Mole percent impurity—120 hours: endoperoxide in tetrahydrofuran-d8 after 120 hours, protected from light; for Mole percent impurity—120 hours / Mole percent increase: room temperature; for Mole percent impurity—initial: endoperoxide in tetrahydrofuran-d8 solution; for Mole percent increase: increase of endoperoxide over 120 hours in tetrahydrofuran-d8, protected from light
Experimental: The solution stabilities of the compounds of Examples 1 to 4 were determined by proton NMR analysis of saturated solutions of the corresponding compounds in tetrahydrofuran-d8. Comparing the proton NMR integration of the four protons at positions 5, 7, 12 and 14 (8.51 ppm to 8.69 ppm) to the integration of the four corresponding protons from the endoperoxide (the major and only detectable decomposition product, 7.93 ppm to 7.98 ppm), the percent increase of this impurity was determined for each compound. The solutions were prepared by dissolving the corresponding compound in tetrahydrofuran-d8 and the proton NMR spectra were obtained to determine the initial concentration of endoperoxide for each sample. The solutions were allowed to stand protected from light at room temperature (i.e., 20° C. to 25° C.) for 120 hours. Proton NMR spectra of the aged samples were taken and the increase in absorption of the endoperoxide was used to calculate the data shown in Table 3. The formation of the endoperoxide is shown in the following reaction for compounds of Formula II.

[4] = small quantity extracted into refluxing 1,2-dichlorobenzene; cited from earlier work
[5] = saturated solution in tetrahydrofuran-d8, mixed 30 minutes, filtered

Compound | air and light sensitivity [1] | Molarity in THF [2, 5] | Moles of compound/moles of THF [2, 5] | Weight percent in THF [2, 5] [weight percent] | Mole percent impurity—120 hours [3] [mole percent] | Mole percent impurity—initial [3] [mole percent] | Mole percent increase [3] [mole percent] | Molarity in THF [2] | Moles of compound/moles of THF [2] | time to bleaching [4]
C[Si](C)(C)c1cc2cc3cc4cc5cc([Si](C)(C)C)c([Si](C)(C)C)cc5cc4cc3cc2cc1[Si](C)(C)C [2,3,9,10-tetrakis(trimethylsilyl)pentacene] | highly air- and light-sensitive | – | – | – | – | – | – | – | – | –
c1csc(-c2c3cc4ccccc4cc3c(-c3cccs3)c3cc4ccccc4cc23)c1 [Example 1, 2-(13-thien-2-ylpentacene-6-yl)thiophene] | – | 6.58 × 10^−3 | 5.35 × 10^−4 | 0.327 | 21.26 | 5.66 | 15.60 | – | – | –
CCCCCCc1ccc(-c2c3cc4ccccc4cc3c(-c3ccc(CCCCCC)s3)c3cc4ccccc4cc23)s1 [Example 2, 2-hexyl-5-[13-(5-hexylthien-2-yl)pentacene-6-yl]thiophene] | – | 1.22 × 10^−1 | 1.08 × 10^−2 | 8.35 | 10.71 | 2.91 | 7.80 | – | – | –
C[Si](C)(C)c1ccc(-c2c3cc4ccccc4cc3c(-c3ccc([Si](C)(C)C)s3)c3cc4ccccc4cc23)s1 [Example 3, trimethyl(5-{13-[5-(trimethylsilyl)thien-2-yl]pentacen-6-yl}thien-2-yl)silane] | – | 3.54 × 10^−2 | 2.94 × 10^−3 | 2.34 | 4.76 | 1.96 | 2.80 | – | – | –
c1csc(-c2ccc(-c3c4cc5ccccc5cc4c(-c4ccc(-c5cccs5)s4)c4cc5ccccc5cc34)s2)c1 [Example 4, 5-[13-(2,2′-bithien-5-yl)pentacen-6-yl]-2,2′-bithiophene] | – | – | – | 0.135 | 6.54 | 2.91 | 3.63 | 1.98 × 10^−3 | 1.61 × 10^−4 | –
c1ccc2cc3cc4cc5ccccc5cc4cc3cc2c1 [pentacene] | – | – | – | – | – | – | – | – | – | less than 5 minutes
